Assays:
Type in all cases: biochemical
[1] = target: T1, aureolysin (ALN) (Staphylococcus aureus, UniProt P81177); assay: Inhibition of aureolysin (ALN), substrate McaRPPGFSAFK(Dnp)-OH
T1 construct: purchased BioCentrum Ltd. (Kraków, Poland)
Experimental: (§1) McaPLGL(Dpa)AR-NH2 was used as a substrate for MMP-9 and MMP-14, while McaRPPGFSAFK(Dnp)-OH was used as substrate for ALN, PLN and TLN. The reaction velocities/initial rates (v) were determined at 37 °C, at an excitation wavelength of 320 nm and an emission wavelength of 405 nm with a slit width of 10 nm using either a Perkin Elmer LS 50 Luminescence spectrometer and the FL WinLab Software Package (Perkin Elmer) or a Clario Star microplate reader (CLARIOstar® BMG LABTECH).
(§2) The test compounds were dissolved in 100% DMSO giving a concentration of 10 mM. A fixed substrate concentration of 4.0 µM in a total volume of 100 µL 0.1 M Hepes pH 7.5, 10 mM CaCl2, 0.005% Brij-35 and 1.0% DMSO, were used in all assays, except for ALN where the substrate concentration was 5.0 µM. The fixed enzyme concentrations were as follows; 0.05 nM MMP-9, 1.0 nM MMP-14, 1.4 nM ALN, 0.5 nM PLN and 0.21 nM TLN. Time-dependent inhibitory experiments without and with 100 μM of testing compounds were performed as follows. Compounds were either pre-incubated with the proteases for 15, 30 and 45 min at room temperature and the enzymatic reaction was started by adding the substrate, or not pre-incubated, i.e., the reaction was started by adding the protease to the mixture of substrate and compound. Control tests without compound present were performed in the same way. The reaction was followed for 30 min at 37 °C.
(§3) Enzymes with and without inhibitor were pre-incubated for 30 min at room temperature, and initial rate assays were performed as described above. Assays were performed using a Clario Star microplate reader (CLARIOstar® BMG LABTECH). The IC50 values were calculated in Graph Pad Prism 5 using Equation (1):(1) vi/v0=1/(1+10^(pIC50−pI)) where vi is the enzyme activity in the presence of inhibitor, v0 the activity in the absence of inhibitor, pI = −log [Inhibitor] in M and pIC50 = −log IC50 in M. All experiments were performed in at least triplicate.

[2] = target: T2, pseudolysin (PLN) (Pseudomonas aeruginosa, UniProt P14756); assay: Inhibition of pseudolysin (PLN), substrate McaRPPGFSAFK(Dnp)-OH
T2 construct: purchased Calbiochem (San Diego, CA, USA)
Experimental: as §1, §2, §3

[3] = target: T3, recombinant human MMP-9 (Homo sapiens, UniProt P14780); assay: Inhibition of MMP-9, fluorescence quenched peptide substrate McaPLGL(Dpa)AR-NH2; details: substrate McaPLGL(Dpa)AR-NH2 4 µM; 30 min pre-incubation at room temperature; calculated from IC50; read-out: Ki ± s.d. MMP-9
T3 construct: made in house; host or cells: Sf9 insect cells
Experimental: The expression and purification of recombinant human full-length proMMP-9 (rpMMP-9) from Sf9 insect cells were performed as described previously. The amount of proMMP-9 was estimated spectrophotometrically at 280 nm using ε280 nm = 114.36 mM^−1 cm^−1 [48]. Activation of the recombinant proMMP-9 was performed with APMA (auto-activation) as described previously. The amount of active MMP-9 was determined by active site titration using galardin also described previously.
as §1, §2, §3

[4] = target: T4, thermolysin (TLN) (Bacillus thermoproteolyticus, UniProt P00800); assay: Inhibition of thermolysin (TLN), substrate McaRPPGFSAFK(Dnp)-OH; details: substrate McaRPPGFSAFK(Dnp)-OH 4 µM; 30 min pre-incubation at room temperature; calculated from IC50; read-out: Ki ± s.d. TLN
T4 construct: purchased Calbiochem (San Diego, CA, USA)
Experimental: as §1, §2, §3

[5] = target: T5, human MT1-MMP/MMP-14 (catalytic domain) (Homo sapiens, UniProt P50281); assay: Inhibition of MMP-14, fluorescence quenched peptide substrate McaPLGL(Dpa)AR-NH2; details: substrate McaPLGL(Dpa)AR-NH2 4 µM; 30 min pre-incubation at room temperature; calculated from IC50; read-out: Ki ± s.d. MMP-14
T5 construct: human MT1-MMP/MMP-14 (catalytic domain); purchased Calbiochem (San Diego, CA, USA)
Experimental: as §1, §2, §3

T4 sequence (P00800 233-548): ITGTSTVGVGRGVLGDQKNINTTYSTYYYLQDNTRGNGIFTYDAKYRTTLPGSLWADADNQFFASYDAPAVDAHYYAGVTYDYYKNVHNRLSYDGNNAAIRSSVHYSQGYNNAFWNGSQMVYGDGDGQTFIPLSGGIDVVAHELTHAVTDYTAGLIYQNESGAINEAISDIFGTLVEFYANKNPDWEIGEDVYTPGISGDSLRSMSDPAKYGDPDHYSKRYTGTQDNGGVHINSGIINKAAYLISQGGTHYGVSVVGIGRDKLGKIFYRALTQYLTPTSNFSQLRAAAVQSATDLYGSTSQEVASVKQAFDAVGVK
T1 sequence (P81177 209-509): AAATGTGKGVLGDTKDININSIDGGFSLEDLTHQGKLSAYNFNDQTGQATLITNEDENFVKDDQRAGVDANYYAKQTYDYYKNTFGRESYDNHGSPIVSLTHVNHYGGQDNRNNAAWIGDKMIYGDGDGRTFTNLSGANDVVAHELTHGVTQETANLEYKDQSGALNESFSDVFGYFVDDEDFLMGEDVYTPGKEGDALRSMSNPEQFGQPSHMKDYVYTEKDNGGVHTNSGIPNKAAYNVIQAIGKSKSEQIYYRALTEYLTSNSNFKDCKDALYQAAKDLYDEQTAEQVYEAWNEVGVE
T2 sequence (P14756 198-498): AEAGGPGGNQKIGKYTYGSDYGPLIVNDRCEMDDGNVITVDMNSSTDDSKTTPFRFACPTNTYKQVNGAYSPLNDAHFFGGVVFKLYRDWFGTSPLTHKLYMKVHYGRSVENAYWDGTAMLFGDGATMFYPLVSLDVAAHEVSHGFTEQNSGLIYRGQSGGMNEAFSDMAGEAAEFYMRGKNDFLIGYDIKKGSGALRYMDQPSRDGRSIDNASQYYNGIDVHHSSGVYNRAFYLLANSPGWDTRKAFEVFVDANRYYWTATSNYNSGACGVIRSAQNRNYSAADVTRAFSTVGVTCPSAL
T3 sequence (P14780 107-707 limits assumed): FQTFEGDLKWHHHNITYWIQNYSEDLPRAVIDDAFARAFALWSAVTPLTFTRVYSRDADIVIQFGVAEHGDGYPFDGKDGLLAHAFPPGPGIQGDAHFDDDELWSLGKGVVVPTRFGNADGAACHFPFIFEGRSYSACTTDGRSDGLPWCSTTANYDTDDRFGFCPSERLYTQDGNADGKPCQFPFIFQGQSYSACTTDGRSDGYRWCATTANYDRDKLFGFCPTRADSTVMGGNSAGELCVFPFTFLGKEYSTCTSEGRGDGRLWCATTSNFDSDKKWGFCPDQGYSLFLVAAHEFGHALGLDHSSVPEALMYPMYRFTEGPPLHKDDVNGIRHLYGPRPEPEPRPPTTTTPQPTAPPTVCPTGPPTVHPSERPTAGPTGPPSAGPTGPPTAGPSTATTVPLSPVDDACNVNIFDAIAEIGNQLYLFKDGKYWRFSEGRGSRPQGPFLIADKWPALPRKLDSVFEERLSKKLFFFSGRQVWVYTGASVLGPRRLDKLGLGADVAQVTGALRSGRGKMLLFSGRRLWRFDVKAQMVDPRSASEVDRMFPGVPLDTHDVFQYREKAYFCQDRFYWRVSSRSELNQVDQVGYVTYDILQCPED

`c1ccc(CN(Cc2ccccn2)Cc2ccccn2)nc1` [TPA, tri(2-pyridinemethyl)amine, reference compound] gave a Ki [1] of 16 ± 1 µM, a Ki [2] of 5 ± 2 µM and a Ki [3] of 15 ± 4 µM. It also gave a Ki [4] of 5.5 ± 0.9 µM and a Ki [5] of 1.2 ± 0.1 µM.
